# Test system: HaCaT cells
# Experiment: Reactive oxygen species production (DCF-DA)
# Assay type: cell-based, human
# Conditions: 25 μM, 6.6 J cm^−2, versus control cells
# Procedure: Cells reactive oxygen species (ROS) production was evaluated following the standard method. Briefly, cells were seed at a density of 4 × 10^4 cells/mL onto 96 well plates and after 24 h the compounds were added at 25 μM (non-toxic concentration) and the same previous procedure for the photoactivation assays was followed. After that, cells were washed twice in Hank’s Buffered Saline Solution (HBSS) and incubated with 100 μL of 50 μM 2′,7′-dichlorodihydrofluorescein diacetate (DCF‐DA) for 30 min in the same previous conditions. For positive control, cells were treated with 100 μM H2O2 for 30 min prior to the addition of DCF-DA. Cells were then washed twice with HBSS and incubated with fresh DMEM medium for 24 h. After this period, the fluorescence intensity at […] (ex/em) was determined in a FlexStation 3 Multi-Mode Microplate Reader.
row,Compound,ROS production upon white light irradiation (in words)
1,"CCN(CC)c1ccc2ccc(/C=C/c3ccc(N(C)C)cc3)[o+]c2c1 [7NEt2st4′NMe2, 7-(diethylamino)-2-(4′-dimethylaminostyryl)-benzopyrylium]",positive modulation of ROS production
2,"CCN(CC)c1ccc2ccc(-c3ccc(N)cc3)[o+]c2c1 [7NEt24′NH2, 4′-amino-7-diethylamino-benzopyrylium]",positive modulation of ROS production

# Test system: HaCaT cells
# Experiment: Cellular photoactivation assay (white light or dark, Alamar Blue)
# Assay type: cell-based, human
# Conditions: 4 h incubation, 6.25–100 μM applied, dark
# Procedure: A white light LED homemade device prototype has 96 LEDs appropriately arranged on a plate of 13 cm length × 8 cm width, with a distance from the microplate surface of 8 cm. The prototype has an irradiance of 21 W m^−2 and a wavelength range of 408–707 nm (Fig. S4).
# For the cellular photoactivation assays, the white light source of 21 W m^−2 was used. Briefly, cells were seed at a density of 4 × 10^4 cells/mL onto 96 –well plates and after 24 h the compounds were added to the plates in different concentrations (6.25–100 μM) and incubated for a period of 4 h at 37 °C in an atmosphere of 5% CO2 and in the presence of DMEM with 2% FBS. After this period, the medium with the compounds was removed and fresh medium (DMEM with 2% FBS without phenol red (DMEM_2% FBS_w/o_PR) was added to cells. Following this procedure, cells were submitted to light irradiation, the selected light source at a height of 8 cm, in a chamber designed to ensure the same light quantity for each well during the treatment. Cells were irradiated for 10 min at an intensity of 50%, at room temperature (making a total energy exposition of 6.6 J cm^−2). The dark treatment was prepared by placing the plates for 10 min in a dark box at room temperature. After this, the 96 well plates were placed in an incubator at 37 °C in an atmosphere of 5% CO2 for 24 h. Then, to determine cell survival the Alamar Blue assay was performed as follows: after the 24 h, 20 μL of a solution of Resazurin (0.15 mg mL^−1 in PBS filtered in 0.22 μm filters) were added to each well (making a total volume of 120 μL per well), and the plates were incubated between 4–6 h (until the development of visible color change from violet to pink). The fluorescence intensity of each well was then determined at 560/590 nm (ex/em) (FlexStation 3 Multi-Mode Microplate Reader).
row,Compound,Dark cytotoxicity to HaCaT cells (in words)
1,"CCN(CC)c1ccc2ccc(/C=C/c3ccc(N(C)C)cc3)[o+]c2c1 [7NEt2st4′NMe2, 7-(diethylamino)-2-(4′-dimethylaminostyryl)-benzopyrylium]",significant dark cytotoxicity
2,"CCN(CC)c1ccc2ccc(-c3ccc(N)cc3)[o+]c2c1 [7NEt24′NH2, 4′-amino-7-diethylamino-benzopyrylium]",significant decrease of cell survival

# Same assay, conditions: 4 h incubation, 6.25–100 μM applied, white light 6.6 J cm^−2
row,Compound,"Photoactivation, dark versus white light (in words)"
1,"CCN(CC)c1ccc2ccc(/C=C/c3ccc(N(C)C)cc3)[o+]c2c1 [7NEt2st4′NMe2, 7-(diethylamino)-2-(4′-dimethylaminostyryl)-benzopyrylium]",significant photoactivation was found for the last four concentrations
2,"CCN(CC)c1ccc2ccc(-c3ccc(N)cc3)[o+]c2c1 [7NEt24′NH2, 4′-amino-7-diethylamino-benzopyrylium]",potential photo-activation

# Same assay, conditions: Homo sapiens, HaCaT, 4 h, 4 h incubation, kept in the dark, concentrations corrected for uptake; read-out: IC50 of HaCaT cell survival, DARK
row,Compound,IC50
1,"CCN(CC)c1ccc2ccc(/C=C/c3ccc(N(C)C)cc3)[o+]c2c1 [7NEt2st4′NMe2, 7-(diethylamino)-2-(4′-dimethylaminostyryl)-benzopyrylium]",5.11 ± 0.196 µM
2,"CCN(CC)c1ccc2ccc(-c3ccc(N)cc3)[o+]c2c1 [7NEt24′NH2, 4′-amino-7-diethylamino-benzopyrylium]",3 ± 0.734 µM

# Same assay, conditions: Homo sapiens, HaCaT, 4 h incubation, white light 6.6 J cm^−2 (10 min), concentrations corrected for uptake; read-out: IC50 of HaCaT cell survival, LIGHT
row,Compound,IC50
1,"CCN(CC)c1ccc2ccc(/C=C/c3ccc(N(C)C)cc3)[o+]c2c1 [7NEt2st4′NMe2, 7-(diethylamino)-2-(4′-dimethylaminostyryl)-benzopyrylium]",1.08 ± 0.13 µM
2,"CCN(CC)c1ccc2ccc(-c3ccc(N)cc3)[o+]c2c1 [7NEt24′NH2, 4′-amino-7-diethylamino-benzopyrylium]",1.53 ± 0.081 µM

# Test system: not listed separately
# Experiment: MTT cytotoxicity assay, keratinocytes
# Assay type: cell-based
# Conditions: human, HaCaT cells (keratinocytes), monolayer confluence, dark
# Procedure: The cytotoxicity of amino-based flavylium compounds to HFF-1 (ATCC Number: SCRC-1041) and HaCaT cells was evaluated using the standard MTT assay. Briefly, cells were seeded at a density of 8 × 10^5 and 4 × 10^4 cells/mL, respectively, in 96-well plate and incubated at 37 °C in a 5% CO2 atmosphere. Cells were allowed to grow for 24 h or until reaching monolayer confluency, and serially diluted compound solutions (6.3–100 µM) were added to the plate wells. The stock solutions of each compound were prepared at 200 mM in DMSO, the maximum % of DMSO in the cells was 0.05%. Then, cells were incubated for 48 h at 37 °C, after which the plate wells were washed once with phosphate buffered saline (PBS, Sigma-Aldrich), followed by addition of a 0.45 mg/mL MTT solution to each well. Crystals were allowed to form for 1.5 h. The reaction was stopped by rejecting the medium followed by the addition of 100 µL of DMSO (Sigma-Aldrich). The absorbance was read at 570 nm in FlexStation 3 Multi-Mode Microplate Reader (Molecular Devices, California, USA).
row,Compound,IC50 at 48 h
1,"CCN(CC)c1ccc2ccc(/C=C/c3ccc(N(C)C)cc3)[o+]c2c1 [7NEt2st4′NMe2, 7-(diethylamino)-2-(4′-dimethylaminostyryl)-benzopyrylium]",91 ± 0.8 µM
2,"CCN(CC)c1ccc2ccc(-c3ccc(N)cc3)[o+]c2c1 [7NEt24′NH2, 4′-amino-7-diethylamino-benzopyrylium]",29.8 ± 0.8 µM

# Same assay, conditions: human, HaCaT cells (keratinocytes), proliferation, dark
row,Compound,IC50 at 48 h
1,"CCN(CC)c1ccc2ccc(/C=C/c3ccc(N(C)C)cc3)[o+]c2c1 [7NEt2st4′NMe2, 7-(diethylamino)-2-(4′-dimethylaminostyryl)-benzopyrylium]",35.42 ± 0.02 µM
2,"CCN(CC)c1ccc2ccc(-c3ccc(N)cc3)[o+]c2c1 [7NEt24′NH2, 4′-amino-7-diethylamino-benzopyrylium]",8.9 ± 0.2 µM

# Test system: not listed separately
# Experiment: Fluorescence quantum yield by the absolute method (integrating sphere)
# Assay type: physicochemical
# Conditions: in DMSO
# Procedure: Based on the absorbance maxima of the different compounds (Fig. S2), the measurement of the quantum yield (QY) of the synthesized flavylium derivatives was performed using a calibrated Quantaurus-QY stand-alone integrating sphere setup C11347-11 (Hamamatsu Photonics, Hamamatsu, Japan) equipped with an integration sphere, a monochromator, a spectrograph, a 150 W xenon light source and a silicon charge coupled device. Each compound was dissolved in DMSO and diluted to ensure an absorbance of 0.1 from the λmax of excitation forward. Each compound was then irradiated at the corresponding wavelength and the absolute quantum yield determined. The fluorescence spectra was also recorded (Fig. S3). For each compound, four independent experiments were performed.
row,Compound,"Quantum yield of fluorescence (Φf), mean ± SD"
1,"CCN(CC)c1ccc2ccc(/C=C/c3ccc(N(C)C)cc3)[o+]c2c1 [7NEt2st4′NMe2, 7-(diethylamino)-2-(4′-dimethylaminostyryl)-benzopyrylium]",3.40 ± 0.17%

# Test system: HaCaT cells
# Experiment: Photodynamic therapy mechanism determination with type I/type II quenchers
# Assay type: cell-based, human
# Conditions: D-mannitol 10 mM (type I), compound 50 μΜ, light 6.6 J cm^−2
# Procedure: For the determination of the photoactivation mechanism that yielded to cell death, cells were seeded as previously described for the photoactivation assays. […] The incubation proceeded for a time period of 4 h. After this, solutions containing the compounds were removed from cells and fresh medium containing the different quenchers were added to cells. Cells were irradiated for 10 min at an intensity of 50%, at room temperature (making a total energy exposition of 6.6 J cm^−2). The dark treatment was done by placing the plates for 10 min in a dark box at room temperature. After this, the medium was removed and replaced by fresh medium without any additive. The 96 well plates were then placed in an incubator at 37 °C in an atmosphere of 5% CO2 for 24 h. Finally, the Alamar Blue assay was performed to determine cell survival as previously described.
row,Compound,Increase of cell survival with quencher
1,"CCN(CC)c1ccc2ccc(/C=C/c3ccc(N(C)C)cc3)[o+]c2c1 [7NEt2st4′NMe2, 7-(diethylamino)-2-(4′-dimethylaminostyryl)-benzopyrylium]",22%
2,"CCN(CC)c1ccc2ccc(-c3ccc(N)cc3)[o+]c2c1 [7NEt24′NH2, 4′-amino-7-diethylamino-benzopyrylium]",14%

# Same assay, conditions: L-cysteine 10 mM (type I), compound 50 μΜ, light 6.6 J cm^−2
row,Compound,Increase of cell survival with quencher
1,"CCN(CC)c1ccc2ccc(/C=C/c3ccc(N(C)C)cc3)[o+]c2c1 [7NEt2st4′NMe2, 7-(diethylamino)-2-(4′-dimethylaminostyryl)-benzopyrylium]",16%
2,"CCN(CC)c1ccc2ccc(-c3ccc(N)cc3)[o+]c2c1 [7NEt24′NH2, 4′-amino-7-diethylamino-benzopyrylium]",27%

# Same assay, conditions: L-histidine 10 mM (type II), compound 50 μΜ, light 6.6 J cm^−2
row,Compound,Increase of cell survival with quencher
1,"CCN(CC)c1ccc2ccc(/C=C/c3ccc(N(C)C)cc3)[o+]c2c1 [7NEt2st4′NMe2, 7-(diethylamino)-2-(4′-dimethylaminostyryl)-benzopyrylium]",46%
2,"CCN(CC)c1ccc2ccc(-c3ccc(N)cc3)[o+]c2c1 [7NEt24′NH2, 4′-amino-7-diethylamino-benzopyrylium]",33%

# Same assay, conditions: sodium azide 10 mM (type II), compound 50 μΜ, light 6.6 J cm^−2
row,Compound,Increase of cell survival with quencher
1,"CCN(CC)c1ccc2ccc(/C=C/c3ccc(N(C)C)cc3)[o+]c2c1 [7NEt2st4′NMe2, 7-(diethylamino)-2-(4′-dimethylaminostyryl)-benzopyrylium]",31%
2,"CCN(CC)c1ccc2ccc(-c3ccc(N)cc3)[o+]c2c1 [7NEt24′NH2, 4′-amino-7-diethylamino-benzopyrylium]",31%
